In patent publication US20160154122A1, “Scintillating Organic Materials and Methods For Detecting Neutron and Gamma Radiation” (Nanoptics, Incorporated, priority 2011, published 2016):
Where two headings read alike, the source gives them in different places.

How the values were obtained:
[1] = Source text: Salts of lithium can have a variety of properties, including one or more of the following: many salts of lithium are very chemically reactive; others are extremely insoluble; some are not produced in high volume and are, therefore, expensive to use at high concentration; and others have elements with moderate to high atomic numbers, causing quenching of the scintillation light.
[2] = Solubility of base dye in polystyrene; type: physicochemical; conditions: base dye measured to be soluble in polystyrene
[3] = result in words; cited from earlier work
[4] = result in words; cited from earlier work; remark: listed apart in the source

## [Cl-].[Li+] [Lithium Chloride]
[1]
  Solubility of Compound (wt %) DIM: >15.0 wt %
  Solubility of Compound (wt %) DMSO: 10.20 wt %
  Solubility of Compound (wt %) H2O: 83.50 wt %

## c1ccc(-c2cnc(-c3ccccc3)o2)cc1 [2,5 Diphenyloxazole]
[2]
  Solubility: >1500 mM

## Cc1cccc2ccccc12 [1-Methyl Naphthalene]
[2]
  Solubility: >1000 mM

## c1ccc2ccccc2c1 [Naphthalene]
[2]
  Solubility: >1000 mM

## Cc1ccc(C)cc1 [p-Xylene]
[2]
  Solubility: >1000 mM

## Cc1ccc2ccccc2c1 [2-Methyl Naphthalene]
[2]
  Solubility: >1000 mM

## [Li+].[O-][Cl+3]([O-])([O-])[O-] [Lithium Perchlorate]
[1]; achievable lithium ions in DMSO
  Percentage wt of Lithium in Solution DMSO: 2.05 % wt/wt
[1]; achievable lithium ions in H2O
  Percentage wt of Lithium in Solution H2O: 3.70 % wt/wt
[1]; maximum solubility in DMSO
  Solubility of Compound (wt %) DMSO: 31.50 wt %
[1]; maximum solubility in H2O
  Solubility of Compound (wt %) H2O: 56.10 wt %

## O=C([O-])c1ccccc1.[Li+] [Lithium Benzoate]
[1]
  Percentage wt of Lithium in Solution H2O: 2.40 % wt/wt

## C=CN1CCCC1=O [N-Vinyl-2-Pyrrolidone]
[3]
  Hygroscopic: Yes

## Cc1ccc(C)c(C)c1 [pseudocumene]
[2]
  Solubility: >1000 mM

## CN1CCN(C)C1=O [DMI, 1,3 Dimethyl 2-Imidazolidone]
[4]
  Miscibility with water: miscible

## CN1CCCC1=O [NMP, Methylpyrrolidone]
[4]
  Miscibility with water: miscible
